Test results taken from patent US20080051454A1, “Compositions and methods for transient receptor potential vanilloid (TRPV) channel mediated treatments” (The Board of Trustees Operating Michigan State University, priority 2006, published 2008).

Tests used:
[1] = tested on: renal tissues; test: Capsaicin-induced CGRP release from renal tissues; set-up: species or system rat; settings: capsazepine 10 mmol/l; all groups
Description: N¼5,_P<0.05 versus vehicle, capsazepine plus capsaicin and capsazepine; †P<0.001 versus capsaicin of control rats with a normal sodium diet (Con-NS) and capsaicin of control rats with a high sodium diet (Con-HS). Vehicle; capsaicin; capsazepine and capsaicin; capsazepine.
To examine renal sensory nerve function, renal CGRP release after stimulation of the renal sensory nerves with capsaicin was examined.

[2] = tested on: rats fed either a high or normal sodium diet; settings: cited from earlier work
[3] = tested on: WT hearts; test: Preconditioning (PC) protection against I/R in Langendorff hearts with receptor antagonists, wild type; set-up: species or system mouse
Procedure: Male TRPV1 gene knockout (TRPV1-/-) strain B6.129S[…][…]^tm1Jul and matching control wild type (WT) strain C57BL/6J mice were used (Jackson Laboratory, Bar Harbor, Me.). Mice were heparinized (500 U/kg i.p.) and anesthetized with pentobarbital sodium (50 mg/kg i.p.). […] The distal end of the catheter was connected to a […] Performance Analyzer via a pressure transducer. Coronary flow (CF) was continuously measured using an ultrasonic flow probe placed in the aortic perfusion line. Hearts were paced at 400 bpm except during ischemic PC and sustained global ischemia to avoid inducing excessive ventricular tachyarrhythmia during reperfusion, and pacing was reinitiated 2 minutes after reperfusion. Left ventricular developed pressure (LVDP, peak systolic minuses LVEDP) and LV peak positive […]) during isovolumic contraction were used as indices of LV systolic function; LVEDP and the peak negative […] used as indices of LV diastolic function. […] Non-preconditioned hearts were time-matched perfused with the same duration as that of preconditioned hearts. Group 1: Controls. As normal controls (nonischemic), WT and TRPV1-/- hearts were perfused for 130 minutes. For I/R controls, WT and TRPV1-/- hearts were first perfused with Krebs-Henseleit buffer for 55 min (time-matched perfusion of the equilibration period plus the PC period), and subsequently subjected to 30 minutes of no-flow normothermic global ischemia followed by 40-minutes of reperfusion. Group 2: PC. […] The hearts were subjected to 30 minutes of no-flow normothermic global ischemia followed by 40-minutes of reperfusion as that of I/R control groups. Group 3: PC plus capsazepine (CAPZ). […] Two additional concentrations of CAPZ, 10^-6M and 10^-8 M, were used in WT hearts. An additional drug control was added. After a 20-minute equilibration period, WT hearts were perfused with CAPZ (10^-7 M) for 10 minutes without PC, followed by perfusion with Krebs-Henseleit buffer for 25 minutes (time-matched perfusion of the PC period) and then subjected to I/R. Group 4: […] Two additional concentrations of CGRP8-37, 10^-5 M and 10^-7 M, were used in WT hearts. An additional drug control of CGRP8-37 was added as that of the CAPZ control group. Group 5: PC plus RP67580. To determine the role of endogenous SP during PC, hearts from WT and TRPV1-/-mice were perfused as that of CAPZ with RP67580 (10^-7 M), a selective neurokinin-1 (NK1) receptor antagonist. Two additional concentrations of RP67580, 10^-6 M and 10^-8 M, were used in WT hearts. An additional drug control of RP67580 was added as that of the CAPZ control group.

[4] = tested on: Wistar rats fed a normal-salt (NS) or high-salt (HS) diet for 10 days; test: MAP and HR responses to i.v. bolus NADA with or without antagonists in conscious rats; type: in vivo, rat; settings: for prolonged depressor effect of NADA (decrease in MAP) after antagonist: NADA 4 mg/kg after CAPZ 3 mg/kg, CGRP8-37 infusion or SR141716A 3 mg/kg
Description: In brief: Wistar rats were fed a normal (NS, 0.4%) or high (HS, 4%) sodium diet for 10 days, then artery and vein were cannulated for measurement of mean arterial pressure (MAP) or for injection of drugs and collection of plasma.
Animal Preparation: Male Wistar rats (7 weeks old, Charles River Laboratory, Wilmington, Mass.) were housed in the animal facility for 1 week before the experiment. Rats were grouped randomly and pair-fed a NS (0.4% of Na^+ by weight) or HS (4% of Na^+ by weight) diet for 10 days. The rat chow was purchased from Harlan Teklad Diets (Madison, Wis.). Drinking water was available ad libitum throughout the experiment. All protocols were in accordance with the National Institutes of Health Guidelines for the Care and Use of Laboratory Animals.
Surgical Preparation Rats were anesthetized with ketamine and xylazine (80 and 4 mg/kg intraperitoneally, respectively) for cannulation or with urethane (1.5 g/kg intraperitoneally) for capsaicin administration. The left jugular vein, carotid and femoral artery were cannulated under anesthesia for injection of drugs or monitoring of mean arterial pressure (MAP) and heart rate (HR).
Three hours after surgery, baseline MAP and its response to the above-mentioned drugs were obtained with the rats fully awake and unrestrained [Wang et al., Am J Physiol 2004; 287:H1868-H[874]. NADA was injected in increasing doses (1, 4, and 10 mg/kg intravenous bolus) in 3 subgroups of rats (each group for each dose). To determine the role of TRPV1 and CB 1 receptor in NADA-induced hypotension, NADA (4 mg/kg) was injected 10 minutes or 20 minutes after intravenous injection of CAPZ (3 mg/kg) or SR141716A (3 mg/kg), respectively.
To examine the effect of CGRP8-37 on NADA-induced hypotension, CGRP8-37 was intravenously administered at the rate of 1 mg/kg/min for 2 minutes followed by injection at the rate of 0.5 mg/kg/min for 15 minutes. NADA (4 mg/kg) was injected 1 minute after CGRPs-37 administration. The effectiveness of the dose and time frame for CGRP8-37 injection was verified by blockade of the hypotensive response to capsaicin (30 μg/kg) (n=5).

[5] = tested on: WT and TRPV1−/− hearts; test: SP and CGRP release from hearts subjected to PC (radioimmunoassay); set-up: species or system mouse; settings: CAPZ 10^−6 M; in WT but not TRPV1−/− hearts
Procedure: Additional WT and TRPV1−/−hearts were treated the same as that of the PC group except that CAPZ (10^−6 M) was added to the solution. In the normal control group, WT and TRPV1−/−hearts were treated the same as that of the PC group except no deprivation of oxygen and glucose. The samples were purified and analyzed by radioimmunoassay. The assay was performed as recommended by the supplier. Commercially available rat CGRP and SP radioimmunoassay kits (Peninsula Laboratories Inc.) were used for determination of SP and CGRP release which was normalized by the heart weight.

Oc1cc2c(cc1O)CN(C(=S)NCCc1ccc(Cl)cc1)CCC2 [CAPZ, N-[2-(4-Chlorophenyl)ethyl]-1,3,4,5-tetrahydro-7,8-dihydroxy-2H-2-benzazepine-2-carbothioamide]
effect on capsaicin-stimulated CGRP release [1]: blocked
effect on capsaicin actions on plasma CGRP and MAP ([2]; rat, in vivo): blocked
pro-hypertensive effects of salt ([2]; rats fed a high salt diet): unmasked
effect on cardiac function in WT hearts without I/R [3]: no effect on cardiac function
effect on PC-induced cardiac protection (LVEDP, LVDP, CF, +dP/dt, −dP/dt) in WT hearts ([3]; CAPZ 10^−7 M, CGRP8-37 10^−6 M, RP67580 10^−7 M): abolished PC induced protection
effect of antagonist on NADA-induced depressor effect ([4]; NADA 4 mg/kg): abolished
prolonged depressor effect of NADA (decrease in MAP) after antagonist ([4]; HS diet): 7±2 mmHg
prolonged depressor effect of NADA (decrease in MAP) after antagonist ([4]; NS diet): 6±2 mmHg
CGRP release from hearts subjected to PC [5]: attenuated
SP release from hearts subjected to PC [5]: attenuated
